Patent publication US6689773B2, “Uracil substituted phenyl sulfamoyl carboxamides” (BASF Aktiengesellschaft, priority 2000, dated 2004)

Assays:
Format in all cases: in vivo
[1] = test system: XANST, Cocklebur, Xanthium strumariam; assay: Preemergence herbicidal evaluation (Example 148); details: rating scale 0-9, two to four weeks after treatment
Summary of the method: (§1)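 Sow seed–soil mix onto ~1 in soil; spray aqueous acetone compound solution (~0.125–0.250 kg/ha equivalent); keep on greenhouse benches under standard watering; score injury visually after 2–4 weeks.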

[2] = test system: TRZAW, Winter wheat, Tritium Aestivum, L. (Winter); assay: Preemergence herbicidal evaluation (Example 148); details: rating scale 0-9, two to four weeks after treatment
Summary of the method: as §1

[3] = test system: SETVI, Green foxtail, Setaria viridis, (L.)Beau; assay: Preemergence herbicidal evaluation (Example 148); details: rating scale 0-9, two to four weeks after treatment
Summary of the method: as §1

[4] = test system: IPOHE, Morningglory, Ivyleaf, Ipomoea hederacea, (L)Jacq.; assay: Preemergence herbicidal evaluation (Example 148); details: rating scale 0-9, two to four weeks after treatment
Summary of the method: as §1

[5] = test system: CHEAL, Lambsquarters, Chenopodium album, L. Common; assay: Preemergence herbicidal evaluation (Example 148); details: rating scale 0-9, two to four weeks after treatment
Summary of the method: as §1

[6] = test system: ECHCG, Barnyardgrass, Echinochloa crusgalli, (L.)Beau; assay: Preemergence herbicidal evaluation (Example 148); details: rating scale 0-9, two to four weeks after treatment
Summary of the method: as §1

[7] = test system: AMBEL, Ragweed, Common, Ambrosia artemiisifolia, L.; assay: Preemergence herbicidal evaluation (Example 148); details: rating scale 0-9, two to four weeks after treatment
Summary of the method: as §1

[8] = test system: ABUTH, Velvetleaf, Abutilon theophrasti, Medic.; assay: Preemergence herbicidal evaluation (Example 148); details: rating scale 0-9, two to four weeks after treatment
Summary of the method: as §1

[9] = test system: DIGSA, Crabgrass, (Hairy) L, Digitaria sanguinalis, (L)Scop; assay: Preemergence herbicidal evaluation (Example 148); details: rating scale 0-9, two to four weeks after treatment
Summary of the method: as §1

[10] = test system: ZEAMX, Field corn, Zea mays L.; assay: Preemergence herbicidal evaluation (Example 148); details: rating scale 0-9, two to four weeks after treatment
Summary of the method: as §1

[11] = test system: ALOMY, Blackgrass, Alopecurus myosuroides; assay: Preemergence herbicidal evaluation (Example 148); details: rating scale 0-9, two to four weeks after treatment
Summary of the method: as §1

[12] = test system: GLXMA, Soybean, Glycine max, (L.) Merr.; assay: Preemergence herbicidal evaluation (Example 148); details: rating scale 0-9, two to four weeks after treatment
Summary of the method: as §1

[13] = test system: XANST, Cocklebur, Xanthium strumariam; assay: Postemergence herbicidal evaluation (Example 147); details: rating scale 0-9, two to three weeks after treatment
Summary of the method: (§2)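 Postemergence foliar application, approximately 0.016–0.032 kg/ha, to young seedlings grown about two weeks. Response read as a 0–9 visual injury score against untreated plants at two to three weeks.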

[14] = test system: TRZAW, Winter wheat, Tritium Aestivum, L. (Winter); assay: Postemergence herbicidal evaluation (Example 147); details: rating scale 0-9, two to three weeks after treatment
Summary of the method: as §2

[15] = test system: SETVI, Green foxtail, Setaria viridis, (L.)Beau; assay: Postemergence herbicidal evaluation (Example 147); details: rating scale 0-9, two to three weeks after treatment
Summary of the method: as §2

[16] = test system: IPOHE, Morningglory, Ivyleaf, Ipomoea hederacea, (L)Jacq.; assay: Postemergence herbicidal evaluation (Example 147); details: rating scale 0-9, two to three weeks after treatment
Summary of the method: as §2

[17] = test system: CHEAL, Lambsquarters, Chenopodium album, L. Common; assay: Postemergence herbicidal evaluation (Example 147); details: rating scale 0-9, two to three weeks after treatment
Summary of the method: as §2

[18] = test system: ECHCG, Barnyardgrass, Echinochloa crusgalli, (L.)Beau; assay: Postemergence herbicidal evaluation (Example 147); details: rating scale 0-9, two to three weeks after treatment
Summary of the method: as §2

[19] = test system: AMBEL, Ragweed, Common, Ambrosia artemiisifolia, L.; assay: Postemergence herbicidal evaluation (Example 147); details: rating scale 0-9, two to three weeks after treatment
Summary of the method: as §2

[20] = test system: ABUTH, Velvetleaf, Abutilon theophrasti, Medic.; assay: Postemergence herbicidal evaluation (Example 147); details: rating scale 0-9, two to three weeks after treatment
Summary of the method: as §2

[21] = test system: DIGSA, Crabgrass, (Hairy) L, Digitaria sanguinalis, (L)Scop; assay: Postemergence herbicidal evaluation (Example 147); details: rating scale 0-9, two to three weeks after treatment
Summary of the method: as §2

[22] = test system: ZEAMX, Field corn, Zea mays L.; assay: Postemergence herbicidal evaluation (Example 147); details: rating scale 0-9, two to three weeks after treatment
Summary of the method: as §2

[23] = test system: ALOMY, Blackgrass, Alopecurus myosuroides; assay: Postemergence herbicidal evaluation (Example 147); details: rating scale 0-9, two to three weeks after treatment
Summary of the method: as §2

[24] = test system: GLXMA, Soybean, Glycine max, (L.) Merr.; assay: Postemergence herbicidal evaluation (Example 147); details: rating scale 0-9, two to three weeks after treatment
Summary of the method: as §2

In the case of COc1ccc(CNS(=O)(=O)NC(=O)c2cc(-n3c(=O)cc(C(F)(F)F)n(C)c3=O)c(F)cc2Cl)cc1 [Example 82], the “Preemergence herbicidal rating XANST” value ([1]; rate 0.125 kg/ha) is reported as 9.0, the “Preemergence herbicidal rating XANST” value ([1]; rate 0.25 kg/ha) is reported as 9.0 and the “Preemergence herbicidal rating TRZAW” value ([2]; rate 0.125 kg/ha) is reported as 0.0. The “Preemergence herbicidal rating TRZAW” value ([2]; rate 0.25 kg/ha) was 1.0, the “Preemergence herbicidal rating SETVI” value ([3]; rate 0.125 kg/ha) was 3.0 and the “Preemergence herbicidal rating SETVI” value ([3]; rate 0.25 kg/ha) was 7.0. The “Preemergence herbicidal rating IPOHE” value ([4]; rate 0.125 kg/ha) was 9.0, the “Preemergence herbicidal rating IPOHE” value ([4]; rate 0.25 kg/ha) was 9.0 and the “Preemergence herbicidal rating CHEAL” value ([5]; rate 0.125 kg/ha) was 9.0. The “Preemergence herbicidal rating CHEAL” value ([5]; rate 0.25 kg/ha) was 9.0, the “Preemergence herbicidal rating ECHCG” value ([6]; rate 0.125 kg/ha) was 3.0 and the “Preemergence herbicidal rating ECHCG” value ([6]; rate 0.25 kg/ha) was 4.0. The “Preemergence herbicidal rating AMBEL” value ([7]; rate 0.125 kg/ha) was 9.0, the “Preemergence herbicidal rating AMBEL” value ([7]; rate 0.25 kg/ha) was 9.0 and the “Preemergence herbicidal rating ABUTH” value ([8]; rate 0.125 kg/ha) was 9.0. For the same compound, the “Preemergence herbicidal rating ABUTH” value ([8]; rate 0.25 kg/ha) was 9.0, the “Preemergence herbicidal rating DIGSA” value ([9]; rate 0.125 kg/ha) was 4.0 and the “Preemergence herbicidal rating DIGSA” value ([9]; rate 0.25 kg/ha) was 4.0. For the same compound, the “Preemergence herbicidal rating ZEAMX” value ([10]; rate 0.125 kg/ha) was 0.0, the “Preemergence herbicidal rating ZEAMX” value ([10]; rate 0.25 kg/ha) was 2.0 and the “Preemergence herbicidal rating ALMOY” value ([11]; rate 0.125 kg/ha) was 0.0. For the same compound, the “Preemergence herbicidal rating ALMOY” value ([11]; rate 0.25 kg/ha) was 0.0, the “Preemergence herbicidal rating GLXMA” value ([12]; rate 0.125 kg/ha) was 9.0 and the “Preemergence herbicidal rating GLXMA” value ([12]; rate 0.25 kg/ha) was 9.0. For the same compound, the “Postemergence herbicidal rating XANST” value ([13]; rate 0.016 kg/ha) was 9.0, the “Postemergence herbicidal rating XANST” value ([13]; rate 0.032 kg/ha) was 9.0 and the “Postemergence herbicidal rating TRZAW” value ([14]; rate 0.016 kg/ha) was 5.5. The “Postemergence herbicidal rating TRZAW” value ([14]; rate 0.032 kg/ha) was 6.0, the “Postemergence herbicidal rating SETVI” value ([15]; rate 0.016 kg/ha) was 6.0 and the “Postemergence herbicidal rating SETVI” value ([15]; rate 0.032 kg/ha) was 7.0. For the same compound, the “Postemergence herbicidal rating IPOHE” value ([16]; rate 0.016 kg/ha) was 9.0, the “Postemergence herbicidal rating IPOHE” value ([16]; rate 0.032 kg/ha) was 9.0 and the “Postemergence herbicidal rating CHEAL” value ([17]; rate 0.016 kg/ha) was 9.0. For the same compound, the “Postemergence herbicidal rating CHEAL” value ([17]; rate 0.032 kg/ha) was 9.0, the “Postemergence herbicidal rating ECHCG” value ([18]; rate 0.016 kg/ha) was 7.0 and the “Postemergence herbicidal rating ECHCG” value ([18]; rate 0.032 kg/ha) was 8.0. The “Postemergence herbicidal rating AMBEL” value ([19]; rate 0.016 kg/ha) was 9.0, the “Postemergence herbicidal rating AMBEL” value ([19]; rate 0.032 kg/ha) was 9.0 and the “Postemergence herbicidal rating ABUTH” value ([20]; rate 0.016 kg/ha) was 9.0. The “Postemergence herbicidal rating ABUTH” value ([20]; rate 0.032 kg/ha) was 9.0, the “Postemergence herbicidal rating DIGSA” value ([21]; rate 0.016 kg/ha) was 3.0 and the “Postemergence herbicidal rating DIGSA” value ([21]; rate 0.032 kg/ha) was 3.0. The “Postemergence herbicidal rating ZEAMX” value ([22]; rate 0.016 kg/ha) was 6.5, the “Postemergence herbicidal rating ZEAMX” value ([22]; rate 0.032 kg/ha) was 6.5 and the “Postemergence herbicidal rating ALMOY” value ([23]; rate 0.016 kg/ha) was 1.0. For the same compound, the “Postemergence herbicidal rating ALMOY” value ([23]; rate 0.032 kg/ha) was 2.0, the “Postemergence herbicidal rating GLXMA” value ([24]; rate 0.016 kg/ha) was 8.0 and the “Postemergence herbicidal rating GLXMA” value ([24]; rate 0.032 kg/ha) was 8.5.

In the case of Cn1c(C(F)(F)F)cc(=O)n(-c2cc(C(=O)NS(=O)(=O)NC3CCCC3)c(Cl)cc2F)c1=O [Example 78], the “Preemergence herbicidal rating XANST” value ([1]; rate 0.125 kg/ha) is reported as 9.0, the “Preemergence herbicidal rating XANST” value ([1]; rate 0.25 kg/ha) is reported as 9.0 and the “Preemergence herbicidal rating TRZAW” value ([2]; rate 0.125 kg/ha) is reported as 1.0. For the same compound, the “Preemergence herbicidal rating TRZAW” value ([2]; rate 0.25 kg/ha) was 1.0, the “Preemergence herbicidal rating SETVI” value ([3]; rate 0.125 kg/ha) was 5.0 and the “Preemergence herbicidal rating SETVI” value ([3]; rate 0.25 kg/ha) was 7.0. The “Preemergence herbicidal rating IPOHE” value ([4]; rate 0.125 kg/ha) was 9.0, the “Preemergence herbicidal rating IPOHE” value ([4]; rate 0.25 kg/ha) was 9.0 and the “Preemergence herbicidal rating CHEAL” value ([5]; rate 0.125 kg/ha) was 9.0. The “Preemergence herbicidal rating CHEAL” value ([5]; rate 0.25 kg/ha) was 9.0, the “Preemergence herbicidal rating ECHCG” value ([6]; rate 0.125 kg/ha) was 4.0 and the “Preemergence herbicidal rating ECHCG” value ([6]; rate 0.25 kg/ha) was 7.0. The “Preemergence herbicidal rating AMBEL” value ([7]; rate 0.125 kg/ha) was 9.0, the “Preemergence herbicidal rating AMBEL” value ([7]; rate 0.25 kg/ha) was 9.0 and the “Preemergence herbicidal rating ABUTH” value ([8]; rate 0.125 kg/ha) was 9.0. For the same compound, the “Preemergence herbicidal rating ABUTH” value ([8]; rate 0.25 kg/ha) was 9.0, the “Preemergence herbicidal rating DIGSA” value ([9]; rate 0.125 kg/ha) was 4.0 and the “Preemergence herbicidal rating DIGSA” value ([9]; rate 0.25 kg/ha) was 8.0. For the same compound, the “Preemergence herbicidal rating ZEAMX” value ([10]; rate 0.125 kg/ha) was 0.0, the “Preemergence herbicidal rating ZEAMX” value ([10]; rate 0.25 kg/ha) was 1.0 and the “Preemergence herbicidal rating ALMOY” value ([11]; rate 0.125 kg/ha) was 1.0. The “Preemergence herbicidal rating ALMOY” value ([11]; rate 0.25 kg/ha) was 2.0, the “Preemergence herbicidal rating GLXMA” value ([12]; rate 0.125 kg/ha) was 3.0 and the “Preemergence herbicidal rating GLXMA” value ([12]; rate 0.25 kg/ha) was 5.0. The “Postemergence herbicidal rating XANST” value ([13]; rate 0.016 kg/ha) was 9.0, the “Postemergence herbicidal rating XANST” value ([13]; rate 0.032 kg/ha) was 9.0 and the “Postemergence herbicidal rating TRZAW” value ([14]; rate 0.016 kg/ha) was 5.5. For the same compound, the “Postemergence herbicidal rating TRZAW” value ([14]; rate 0.032 kg/ha) was 6.5, the “Postemergence herbicidal rating SETVI” value ([15]; rate 0.016 kg/ha) was 8.0 and the “Postemergence herbicidal rating SETVI” value ([15]; rate 0.032 kg/ha) was 9.0. For the same compound, the “Postemergence herbicidal rating IPOHE” value ([16]; rate 0.016 kg/ha) was 9.0, the “Postemergence herbicidal rating IPOHE” value ([16]; rate 0.032 kg/ha) was 9.0 and the “Postemergence herbicidal rating CHEAL” value ([17]; rate 0.016 kg/ha) was 7.0. The “Postemergence herbicidal rating CHEAL” value ([17]; rate 0.032 kg/ha) was 9.0, the “Postemergence herbicidal rating ECHCG” value ([18]; rate 0.016 kg/ha) was 8.0 and the “Postemergence herbicidal rating ECHCG” value ([18]; rate 0.032 kg/ha) was 9.0. The “Postemergence herbicidal rating AMBEL” value ([19]; rate 0.016 kg/ha) was 9.0, the “Postemergence herbicidal rating AMBEL” value ([19]; rate 0.032 kg/ha) was 9.0 and the “Postemergence herbicidal rating ABUTH” value ([20]; rate 0.016 kg/ha) was 9.0. The “Postemergence herbicidal rating ABUTH” value ([20]; rate 0.032 kg/ha) was 9.0, the “Postemergence herbicidal rating DIGSA” value ([21]; rate 0.016 kg/ha) was 5.0 and the “Postemergence herbicidal rating DIGSA” value ([21]; rate 0.032 kg/ha) was 6.0. For the same compound, the “Postemergence herbicidal rating ZEAMX” value ([22]; rate 0.016 kg/ha) was 6.5, the “Postemergence herbicidal rating ZEAMX” value ([22]; rate 0.032 kg/ha) was 7.0 and the “Postemergence herbicidal rating ALMOY” value ([23]; rate 0.016 kg/ha) was 2.0. The “Postemergence herbicidal rating ALMOY” value ([23]; rate 0.032 kg/ha) was 2.0, the “Postemergence herbicidal rating GLXMA” value ([24]; rate 0.016 kg/ha) was 7.0 and the “Postemergence herbicidal rating GLXMA” value ([24]; rate 0.032 kg/ha) was 8.0.
